According to ChEMBL document CHEMBL5465560, “Selectivity Literature for EUbOPEN Chemogenomic Library” (2024):

How the values were obtained:
[1] = target: T1, Activin receptor type-1 (Homo sapiens) (UniProt Q04771); test: Selectivity interaction (KinomeScan (DiscoverX)) EUB0000655a ACVR1; conditions: at 10 µM
T1 sequence (whole entry): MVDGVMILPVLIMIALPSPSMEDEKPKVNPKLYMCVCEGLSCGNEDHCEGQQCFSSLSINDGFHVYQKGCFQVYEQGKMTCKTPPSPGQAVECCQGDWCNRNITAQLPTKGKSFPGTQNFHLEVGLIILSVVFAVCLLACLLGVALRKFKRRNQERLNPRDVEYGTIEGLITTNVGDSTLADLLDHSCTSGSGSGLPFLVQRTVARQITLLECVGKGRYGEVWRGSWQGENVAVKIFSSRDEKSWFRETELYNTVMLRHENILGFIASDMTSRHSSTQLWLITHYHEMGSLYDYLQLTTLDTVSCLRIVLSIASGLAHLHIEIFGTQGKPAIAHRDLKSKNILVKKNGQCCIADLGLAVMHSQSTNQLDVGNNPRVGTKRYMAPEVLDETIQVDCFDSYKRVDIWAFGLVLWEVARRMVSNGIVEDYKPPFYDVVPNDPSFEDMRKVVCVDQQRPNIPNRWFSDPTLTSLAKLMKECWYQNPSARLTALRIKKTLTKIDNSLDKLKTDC

[2] = target: T2, Peripheral plasma membrane protein CASK (Homo sapiens) (UniProt O14936); test: Selectivity interaction (LanthaScreen Eu Kinase Binding Assay) EUB0001632a CASK; conditions: at 10 µM
T2 sequence (whole entry): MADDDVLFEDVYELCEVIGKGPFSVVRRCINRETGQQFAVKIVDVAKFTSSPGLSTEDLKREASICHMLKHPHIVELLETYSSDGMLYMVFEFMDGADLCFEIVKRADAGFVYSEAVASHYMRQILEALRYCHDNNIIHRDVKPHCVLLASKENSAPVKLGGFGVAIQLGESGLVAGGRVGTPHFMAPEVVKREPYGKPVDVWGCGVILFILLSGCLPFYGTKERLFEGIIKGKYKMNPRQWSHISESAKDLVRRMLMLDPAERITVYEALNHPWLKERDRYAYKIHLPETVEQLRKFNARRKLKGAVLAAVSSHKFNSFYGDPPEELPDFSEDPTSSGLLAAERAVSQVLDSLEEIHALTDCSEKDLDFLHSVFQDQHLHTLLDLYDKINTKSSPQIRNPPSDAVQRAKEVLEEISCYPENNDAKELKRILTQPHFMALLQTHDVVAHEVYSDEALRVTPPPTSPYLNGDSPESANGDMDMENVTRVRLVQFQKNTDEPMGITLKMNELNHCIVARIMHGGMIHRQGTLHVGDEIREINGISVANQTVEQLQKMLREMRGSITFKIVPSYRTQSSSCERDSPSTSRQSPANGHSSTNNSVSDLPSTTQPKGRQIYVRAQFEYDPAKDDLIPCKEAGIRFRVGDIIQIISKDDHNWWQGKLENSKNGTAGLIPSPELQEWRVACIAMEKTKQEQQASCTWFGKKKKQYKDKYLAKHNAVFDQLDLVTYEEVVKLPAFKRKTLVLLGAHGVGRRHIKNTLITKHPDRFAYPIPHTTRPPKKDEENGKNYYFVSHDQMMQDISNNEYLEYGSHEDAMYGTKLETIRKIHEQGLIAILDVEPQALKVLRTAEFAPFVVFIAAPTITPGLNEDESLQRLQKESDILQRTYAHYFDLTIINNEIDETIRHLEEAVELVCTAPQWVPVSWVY

[3] = target: Insulin-like growth factor 1 receptor (Homo sapiens, UniProt P08069); test: Selectivity interaction (Kinase panel (Invitrogen)) EUB0000639a IGF1R; conditions: at 200 nM
Insulin-like growth factor 1 receptor, sequence (P08069 31-736 limits assumed): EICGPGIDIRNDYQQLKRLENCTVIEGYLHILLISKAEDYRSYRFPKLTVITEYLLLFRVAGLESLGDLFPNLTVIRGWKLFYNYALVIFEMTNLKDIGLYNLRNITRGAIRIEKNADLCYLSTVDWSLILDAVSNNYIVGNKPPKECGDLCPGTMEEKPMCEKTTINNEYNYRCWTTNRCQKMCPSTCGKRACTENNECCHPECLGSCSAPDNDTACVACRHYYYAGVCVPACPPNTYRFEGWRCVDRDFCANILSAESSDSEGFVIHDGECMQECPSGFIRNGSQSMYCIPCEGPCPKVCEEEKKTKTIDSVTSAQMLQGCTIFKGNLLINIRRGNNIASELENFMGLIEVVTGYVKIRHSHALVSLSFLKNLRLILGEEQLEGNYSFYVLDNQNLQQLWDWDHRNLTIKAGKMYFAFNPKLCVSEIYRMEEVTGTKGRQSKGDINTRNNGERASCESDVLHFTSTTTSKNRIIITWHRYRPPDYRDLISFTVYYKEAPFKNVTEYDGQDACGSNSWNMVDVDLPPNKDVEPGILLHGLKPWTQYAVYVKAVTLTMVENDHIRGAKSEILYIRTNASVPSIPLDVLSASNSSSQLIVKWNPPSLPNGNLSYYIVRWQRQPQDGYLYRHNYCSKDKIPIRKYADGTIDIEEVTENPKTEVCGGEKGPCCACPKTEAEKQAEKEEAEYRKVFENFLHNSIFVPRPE
Insulin-like growth factor 1 receptor, sequence (P08069 741-1367 limits assumed): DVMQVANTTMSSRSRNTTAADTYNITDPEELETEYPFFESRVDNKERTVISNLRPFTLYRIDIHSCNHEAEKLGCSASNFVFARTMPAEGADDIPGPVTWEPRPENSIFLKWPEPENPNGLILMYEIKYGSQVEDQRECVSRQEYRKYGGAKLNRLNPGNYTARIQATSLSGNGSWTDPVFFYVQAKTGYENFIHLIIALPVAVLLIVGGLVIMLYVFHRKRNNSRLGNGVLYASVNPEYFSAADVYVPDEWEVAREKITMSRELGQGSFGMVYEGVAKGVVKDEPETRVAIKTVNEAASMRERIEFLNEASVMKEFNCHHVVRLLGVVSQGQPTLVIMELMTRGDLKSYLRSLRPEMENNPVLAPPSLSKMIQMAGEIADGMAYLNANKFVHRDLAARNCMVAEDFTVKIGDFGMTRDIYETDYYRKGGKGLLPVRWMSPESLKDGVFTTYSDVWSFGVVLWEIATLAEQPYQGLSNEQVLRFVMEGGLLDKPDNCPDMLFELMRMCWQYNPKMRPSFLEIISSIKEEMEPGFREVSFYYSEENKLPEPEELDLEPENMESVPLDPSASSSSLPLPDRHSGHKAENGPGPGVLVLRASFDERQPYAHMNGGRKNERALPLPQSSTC

[4] = target: T3, Inhibitor of nuclear factor kappa-B kinase subunit epsilon (Homo sapiens) (UniProt Q14164); test: Selectivity interaction (KinomeScan (DiscoverX)) EUB0000607a IKBKE; conditions: at 10 µM
T3 sequence (whole entry): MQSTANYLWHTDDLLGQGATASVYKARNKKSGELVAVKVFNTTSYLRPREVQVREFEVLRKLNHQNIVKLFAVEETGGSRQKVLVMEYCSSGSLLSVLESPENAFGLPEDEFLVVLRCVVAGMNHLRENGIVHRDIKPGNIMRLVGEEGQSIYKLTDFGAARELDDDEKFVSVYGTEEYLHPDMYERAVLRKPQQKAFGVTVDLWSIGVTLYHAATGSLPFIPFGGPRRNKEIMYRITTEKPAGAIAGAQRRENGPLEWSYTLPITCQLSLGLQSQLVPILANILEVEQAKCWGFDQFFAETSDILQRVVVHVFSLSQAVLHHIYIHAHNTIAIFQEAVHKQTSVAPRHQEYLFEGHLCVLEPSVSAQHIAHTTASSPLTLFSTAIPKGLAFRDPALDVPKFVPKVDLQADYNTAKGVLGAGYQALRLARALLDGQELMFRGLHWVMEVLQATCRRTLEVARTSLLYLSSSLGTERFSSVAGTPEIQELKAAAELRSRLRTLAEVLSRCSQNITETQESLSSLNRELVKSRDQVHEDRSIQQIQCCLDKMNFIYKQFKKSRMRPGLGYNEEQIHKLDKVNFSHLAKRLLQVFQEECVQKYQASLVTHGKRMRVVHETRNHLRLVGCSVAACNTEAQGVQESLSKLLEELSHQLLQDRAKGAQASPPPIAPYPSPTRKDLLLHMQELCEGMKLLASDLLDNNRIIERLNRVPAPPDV

[5] = target: T4, Homeodomain-interacting protein kinase 4 (Homo sapiens) (UniProt Q8NE63); test: Selectivity interaction (KinomeScan (DiscoverX)) EUB0000618a HIPK4; conditions: at 10 µM
T4 sequence (whole entry): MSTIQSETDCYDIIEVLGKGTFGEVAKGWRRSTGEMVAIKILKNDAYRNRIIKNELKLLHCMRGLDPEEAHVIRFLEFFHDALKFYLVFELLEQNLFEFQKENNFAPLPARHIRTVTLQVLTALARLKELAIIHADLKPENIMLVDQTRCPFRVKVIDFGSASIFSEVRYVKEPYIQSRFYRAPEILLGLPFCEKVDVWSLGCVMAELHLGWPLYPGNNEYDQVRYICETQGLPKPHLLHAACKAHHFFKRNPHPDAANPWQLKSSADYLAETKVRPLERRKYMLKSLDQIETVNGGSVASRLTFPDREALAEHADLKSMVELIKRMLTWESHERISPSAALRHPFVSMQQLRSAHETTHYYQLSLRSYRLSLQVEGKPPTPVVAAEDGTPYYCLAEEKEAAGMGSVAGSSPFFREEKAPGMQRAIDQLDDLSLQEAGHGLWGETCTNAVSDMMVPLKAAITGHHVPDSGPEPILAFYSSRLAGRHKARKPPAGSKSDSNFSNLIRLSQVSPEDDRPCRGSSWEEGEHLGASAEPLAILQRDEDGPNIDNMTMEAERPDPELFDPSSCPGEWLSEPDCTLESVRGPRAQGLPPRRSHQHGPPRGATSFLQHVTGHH

[6] = target: Serine/threonine-protein kinase Nek6 (Homo sapiens) (UniProt Q9HC98); test: Selectivity interaction (KinomeScan (DiscoverX)) EUB0000618a NEK6; conditions: at 10 µM
Serine/threonine-protein kinase Nek6 (Homo sapiens), sequence (Q9HC98 whole entry): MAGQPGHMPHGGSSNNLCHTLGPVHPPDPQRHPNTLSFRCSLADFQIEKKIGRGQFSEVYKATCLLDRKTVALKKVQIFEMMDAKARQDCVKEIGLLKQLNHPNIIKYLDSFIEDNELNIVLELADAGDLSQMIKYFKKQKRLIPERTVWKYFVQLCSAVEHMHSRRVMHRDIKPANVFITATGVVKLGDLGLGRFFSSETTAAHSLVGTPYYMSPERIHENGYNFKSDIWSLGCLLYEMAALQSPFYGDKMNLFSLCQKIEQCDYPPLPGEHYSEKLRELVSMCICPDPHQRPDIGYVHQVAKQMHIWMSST

CN(C)CCOc1ccc(-c2nc(-c3ccncc3)c(-c3ccc4c(c3)CC/C4=N\O)[nH]2)cc1
% of control [1]: 51%

Cn1cc(-n2cnc3c(NCc4nc5cc(Cl)c(Cl)cc5[nH]4)nc(N4CCOCC4)nc32)cn1
% of inhibition [2]: -92.6%

CC[C@@H]1[C@H](F)C(=O)N[C@@H]1COc1nccc2cc(C(N)=O)c(OC)cc12 [ZIMLOVISERTIB]
% of inhibition [3]: 7.84%

CNC(=O)Nc1ccc(-c2nc(N3CC4CCC(C3)O4)c3cnn(C4CCC5(CC4)OCCO5)c3n2)cc1
% of control [4]: 100%

O[C@H]1CC[C@H](Nc2ncc3nc(Nc4c(F)cc(F)cc4F)n([C@H]4CCOC4)c3n2)CC1
% of control [5]: 98% | % of control [6]: 100%
